The values below come from US6420373B1, “9-N-Bicyclic nuceoside agents useful as selective inhibitors of proinflammatory cytokines” (Merrell Pharmaceuticals Inc., priority 1993, dated 2002).

For orientation: IC50 means the concentration needed to halve the response being measured. As a reminder, the inhibition is the share of the control response that was lost under treatment.

SMILES strings stand for the structures. Where a name gives a salt, the structure may show the parent alone.

The test system of one assay is TNF-α. Put plainly: LPS-stimulated human monocyte-derived macrophage TNF-α inhibition assay. Format: cell-based. The note with it: 18 hours of culture. How it is done:
Monocyte-derived macrophages stimulated with bacterial lipopolysaccharide (LPS) produce high levels of TNF-α (25.8+4.2 ηg/mL) during 18 hours of culture.

Assay [1] has as its system D-galactosamine animal model of septic shock. Nature of the assay: D-galactosamine animal model of septic shock (protection against lethal effects of LPS). Particulars: treated about 1 hour before i.p. challenge of D-galactosamine and LPS, by 18 hours after challenge, test compound 100 mg/kg i.p. It counts as in vivo.

On to `Nc1ncnc2c1ncn2[C@H]1CC[C@H]2[C@@H]1CC[C@H]2O` (racemic) [(±)-Exo-2-adenyl-endo-6-hydroxybicyclo[3,3,0]octane Dihydrochloride], for which, in the assay with TNF-α (monocyte-derived macrophages from human peripheral blood, LPS-stimulated, dose response 100 μM-0.1 μM, read-out: IC50 for inhibiting TNF-α levels), the half-inhibitory concentration (IC50) was 143 nM. This compound came in with a protection in assay [1] (mice) of 100%. Also, the mice killed in assay [1] was 0 out of 8.

As to `CC(=O)CCCCn1c(=O)c2c(ncn2C)n(C)c1=O` [Pentoxifylline, reference compound], the inhibition at 50 µM in the assay on TNF-α (Homo sapiens, at 50 μM, LPS-stimulated monocyte-derived macrophages, read-out: inhibition of TNF-α levels) turned out to be 73.5%.
